# Data from the supplement of paper PMC10307832.
# Legend:
# Assay in all cases: relative viability (nuclei count vs DMSO), 5 days (fraction); higher = more cells survive
# CX-5461 + Decitabine = compound: Cc1cnc(CNC(=O)c2c(=O)c3ccc(N4CCCN(C)CC4)nc3n3c2sc2ccccc23)cn1 [CX-5461] + Nc1ncn([C@H]2C[C@H](O)[C@@H](CO)O2)c(=O)n1 [Decitabine] (partner 2 µM)
# In short: (§1)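 A single step with final 0.05% Triton X-100, 1% formaldehyde and 1 ug/ml Hoechst fixed the cells and stained nuclei 5 days after treatment. Lung cancer cell lines in 1536-well plates had been treated by pin tool the day after seeding with one drug alone or a fixed anchor-drug dose plus five library-drug doses (not always all listed) in √10 steps, and nuclei were counted on 4× images. Relative viability is the ratio of nuclei in treated wells to nuclei in vehicle wells, taken as the median of duplicate plates.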
# CX-5461 + Phenformin = compound: Cc1cnc(CNC(=O)c2c(=O)c3ccc(N4CCCN(C)CC4)nc3n3c2sc2ccccc23)cn1 [CX-5461] + N=C(N)NC(=N)NCCc1ccccc1 [Phenformin] (partner 250 µM)
# In short: as §1
# CX-5461 + Luminespib = compound: Cc1cnc(CNC(=O)c2c(=O)c3ccc(N4CCCN(C)CC4)nc3n3c2sc2ccccc23)cn1 [CX-5461] + CCNC(=O)c1noc(-c2cc(C(C)C)c(O)cc2O)c1-c1ccc(CN2CCOCC2)cc1 [Luminespib] (partner 0.01 µM)
# In short: as §1
# IMD-0354 + Linsitinib = compound: O=C(Nc1cc(C(F)(F)F)cc(C(F)(F)F)c1)c1cc(Cl)ccc1O [IMD-0354] + C[C@]1(O)C[C@@H](c2nc(-c3ccc4ccc(-c5ccccc5)nc4c3)c3c(N)nccn32)C1 [Linsitinib] (partner 1 µM)
# In short: as §1
Cell Line,relative viability (CX-5461 + Decitabine; first compound 0.01 µM),relative viability (CX-5461 + Decitabine; first compound 0.03162 µM),relative viability (CX-5461 + Decitabine; first compound 0.1 µM),relative viability (CX-5461 + Decitabine; first compound 0.3162 µM),relative viability (CX-5461 + Decitabine; first compound 1 µM),relative viability (CX-5461 + Phenformin; first compound 0.01 µM),relative viability (CX-5461 + Phenformin; first compound 0.03162 µM),relative viability (CX-5461 + Phenformin; first compound 0.1 µM),relative viability (CX-5461 + Phenformin; first compound 0.3162 µM),relative viability (CX-5461 + Phenformin; first compound 1 µM),relative viability (CX-5461 + Luminespib; first compound 0.01 µM),relative viability (CX-5461 + Luminespib; first compound 0.03162 µM),relative viability (CX-5461 + Luminespib; first compound 0.1 µM),relative viability (CX-5461 + Luminespib; first compound 0.3162 µM),relative viability (CX-5461 + Luminespib; first compound 1 µM),relative viability (IMD-0354 + Linsitinib; first compound 0.04 µM),relative viability (IMD-0354 + Linsitinib; first compound 0.1265 µM),relative viability (IMD-0354 + Linsitinib; first compound 0.4 µM),relative viability (IMD-0354 + Linsitinib; first compound 1.265 µM),relative viability (IMD-0354 + Linsitinib; first compound 4 µM)
NCI-H1355,0.356,0.34,0.395,0.371,0.348,0.501,0.458,0.454,0.299,0.244,0.843,0.728,0.753,0.706,0.814,1.04,0.708,0.757,0.795,0.203
H3255,0.634,0.611,0.73,–,0.624,0.373,0.367,0.374,0.301,0.338,0.896,0.859,0.932,0.811,0.941,0.931,0.916,0.509,0.314,0.237
NCI-H1993,1.37,0.64,0.668,0.29,0.577,0.478,0.476,0.457,0.452,0.416,0.869,0.935,0.861,0.724,0.907,0.671,0.747,0.696,0.491,0.567
NCI-H1734,0.509,0.489,0.557,0.483,0.483,0.411,0.376,0.374,0.306,0.218,0.182,0.148,0.193,0.173,0.157,1.04,0.936,0.513,0.596,0.231
HOP-62,0.243,0.23,0.171,0.191,0.207,0.743,0.713,0.742,0.572,0.472,0.849,0.921,0.905,0.973,0.917,1.02,0.898,0.48,0.93,0.206
LOU-NH91,0.844,0.866,0.79,0.613,0.783,0.801,0.7,0.697,–,0.594,0.411,0.354,0.303,–,0.323,0.945,0.989,0.652,0.317,0.251
PC-14,0.246,0.202,0.152,0.204,0.114,0.761,0.511,0.499,0.229,0.319,0.14,0.163,0.222,0.204,0.124,1.01,0.841,0.604,0.403,0.175
NCI-H1437,0.603,0.556,0.545,0.51,0.435,0.353,0.315,–,0.288,0.273,1.15,1.2,–,1.08,0.966,1.2,1.01,0.515,0.114,0.249
NCI-H460,0.551,0.429,0.228,0.391,0.0313,0.545,0.483,–,0.483,0.0194,0.0291,0.0347,–,0.041,0.0205,1.2,0.709,0.278,0.0367,0.0126
NCI-H1666,0.768,0.671,0.737,0.701,0.731,0.542,0.551,0.505,0.548,0.507,0.938,0.93,0.922,1.01,0.775,0.747,0.957,0.609,0.17,0.299
NCI-H1651,0.598,0.554,0.452,0.588,0.158,0.322,0.26,–,0.251,0.132,0.827,0.682,–,0.603,0.171,1.03,0.901,0.429,0.0622,0.0566
NCI-H1755,0.782,0.763,0.66,0.687,0.69,0.603,0.637,0.615,0.56,0.493,0.383,0.357,0.482,0.402,0.512,0.998,1.02,0.665,0.666,0.22
NCI-H661,0.523,0.531,0.458,0.429,0.383,0.285,0.286,0.316,0.259,0.23,0.928,0.879,0.792,0.575,0.433,0.65,0.632,0.57,0.532,0.251
HARA,0.595,0.429,0.559,0.587,0.526,0.416,0.414,0.48,–,0.353,0.711,1.15,1.09,–,0.392,1.08,0.867,0.577,0.119,0.136
NCI-H596,1.14,0.994,1.06,1.05,0.872,0.754,0.869,0.879,0.723,0.637,1.07,0.912,1.17,1.12,1.12,0.973,1.05,0.839,1.21,0.682
NCI-H23,0.371,0.344,0.363,0.299,0.268,0.769,0.875,0.834,0.803,0.406,0.212,0.234,0.197,0.234,0.214,0.643,0.646,0.425,0.318,0.19
LCLC-97TM1,0.225,0.233,0.238,0.208,0.229,0.397,0.479,0.415,–,0.384,0.865,0.84,0.889,–,0.703,–,0.153,0.179,0.177,0.132
EPLC-272H,0.358,0.425,0.396,–,0.297,0.278,0.299,0.264,–,0.361,0.324,0.192,0.196,–,0.356,1.3,1.09,0.626,0.945,0.31
NCI-H1915,0.266,0.259,0.284,0.244,0.283,0.375,0.364,0.376,0.32,0.31,0.857,0.852,0.813,0.923,0.783,0.968,1.12,0.944,0.866,0.255
NCI-H2405,0.829,0.779,0.773,0.64,0.608,0.411,0.363,0.415,0.326,0.342,0.664,0.665,0.862,0.743,0.515,1.18,1.06,0.695,0.335,0.185
NCI-H322M,0.716,0.701,0.637,0.572,0.614,0.821,0.945,0.818,0.473,0.521,1.08,0.799,0.798,0.469,0.402,0.973,0.909,0.793,1.09,0.319
NCI-H358,0.206,0.195,0.151,0.149,0.121,0.349,0.347,0.316,0.236,0.148,0.317,0.42,0.327,0.358,0.371,0.993,0.773,0.385,0.23,0.221
NCI-H1793,0.504,0.446,0.535,0.379,0.581,0.388,0.392,0.433,–,0.289,0.199,0.249,0.131,–,0.194,1.15,0.802,0.349,0.298,0.224
SK-MES-1,0.379,0.398,0.413,0.394,0.212,0.662,0.645,0.452,0.625,0.313,0.801,0.975,0.695,0.735,0.304,1.05,1.08,0.762,0.719,0.221
NCI-H838,0.475,0.479,0.47,0.429,0.332,0.748,0.652,0.629,–,0.431,0.299,0.301,0.36,–,0.179,1.18,0.969,0.505,0.47,0.324
